Test results from BindingDB's records for doi:10.1021/jm100571n (Novartis Institutes For Biomedical Research, 2010).
pIC50: −log10 of the molar value.

What was measured:
[1] = biological target: Tyrosine-protein kinase SYK (Homo sapiens) (UniProt P43405); assay: Inhibition of SYK
[2] = biological target: 3-phosphoinositide-dependent protein kinase 1 (Homo sapiens) (UniProt O15530); assay: Inhibition of PDK1

pIC50 [1] | pIC50 [2] | Compound
< 5.00 | < 5.00 | CC(C)c1n[nH]c(Cl)c1-c1ccnc(Nc2ccc(N3CCC(N(C)C)CC3)cn2)n1 [4-(5-Chloro-3-isopropyl-1H-pyrazol-4-yl)-N-(5-(4-(dimethylamino)piperidin-1-yl)pyridin-2-yl)pyrimidin-2-amine]
< 5.00 | < 5.00 | CC(C)c1[nH]nc(C(F)(F)F)c1-c1ccnc(Nc2ccc(N3CCC(N(C)C)CC3)cn2)n1 [N*6'*-[4-(5-Isopropyl-3-trifluoromethyl-1H-pyrazol-4-yl)-pyrimidin-2-yl]-N*4*,N*4*-dimethyl-3,4,5,6-tetrahydro-2H-[1,3']-bipyridinyl-4,6'-diamine]
